We go through 14 compounds from article PMC5867622, “Microginins from a Microcystis sp. Bloom Material Collected from the Kishon Reservoir, Israel” (Marine Drugs, 2018).

Assay [1] addresses T1, porcine kidney microsomal aminopeptidase M (Sus scrofa, UniProt P15145).
T1 construct: purchased Sigma-Aldrich (St. Louis, MO, USA); host or cells: porcine kidney microsomes
T1 sequence (P15145 1-963): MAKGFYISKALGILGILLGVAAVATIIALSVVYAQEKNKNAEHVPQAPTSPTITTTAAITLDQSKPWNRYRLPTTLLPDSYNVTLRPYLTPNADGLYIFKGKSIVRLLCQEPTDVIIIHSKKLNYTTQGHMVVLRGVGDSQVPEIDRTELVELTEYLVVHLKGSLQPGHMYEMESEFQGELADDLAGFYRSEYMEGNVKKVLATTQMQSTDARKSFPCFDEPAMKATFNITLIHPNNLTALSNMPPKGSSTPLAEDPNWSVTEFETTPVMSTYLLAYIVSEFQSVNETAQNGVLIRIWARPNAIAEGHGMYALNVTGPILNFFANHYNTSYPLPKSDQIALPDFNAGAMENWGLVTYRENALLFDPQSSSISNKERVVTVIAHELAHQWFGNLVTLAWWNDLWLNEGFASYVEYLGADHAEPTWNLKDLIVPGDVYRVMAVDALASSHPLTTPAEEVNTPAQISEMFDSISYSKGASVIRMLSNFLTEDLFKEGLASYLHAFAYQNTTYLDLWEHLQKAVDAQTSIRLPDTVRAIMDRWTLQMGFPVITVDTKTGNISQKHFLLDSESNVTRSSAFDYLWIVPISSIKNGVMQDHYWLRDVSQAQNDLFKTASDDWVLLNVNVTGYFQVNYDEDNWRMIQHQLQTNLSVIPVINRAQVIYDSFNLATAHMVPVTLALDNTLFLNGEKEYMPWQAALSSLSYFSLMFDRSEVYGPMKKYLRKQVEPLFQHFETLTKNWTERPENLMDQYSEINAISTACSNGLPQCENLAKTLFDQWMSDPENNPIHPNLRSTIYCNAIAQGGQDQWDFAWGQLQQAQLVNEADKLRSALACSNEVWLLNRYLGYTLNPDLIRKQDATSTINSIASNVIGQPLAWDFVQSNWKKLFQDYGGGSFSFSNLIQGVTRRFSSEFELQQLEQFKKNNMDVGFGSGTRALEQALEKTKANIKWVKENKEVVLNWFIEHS
Briefly: Aminopeptidase M inhibitory assay. In kind it is biochemical. As for the experimental part:
Aminopeptidase M inhibitory activity was determined according to the procedure described by Ishida et al.. A reaction mixture composed of 20 μL of L-leucine-p-nitroanilide (2 mM in 0.1 M Tris-HCl buffer at pH 7.0), 50 μL of 0.1 M Tris-HCl buffer (pH 7.0) and 20 μL of test solution was added to each well of a 96-well microtiter plate. The plate was incubated at 37 °C for 5 min; thereafter, 10 μL of porcine kidney microsomal aminopeptidase M [EC Number 232-942-5, Sigma-Aldrich (St. Louis, MO, USA), […] in 3.5 M (NH4)2SO4] was added to each well, and the absorbance at 405 nm was measured for 30 min. The microginin samples were dissolved in DMSO at a concentration of 1 mg/mL, and the IC50 values were determined by analysis of a series of dilutions (from 45.5 μM to 0.00069 μM). A sigmoidal curve of the enzyme inhibition versus the concentration of the inhibitor was observed that was fit to a 4-parameter logistic model.

A further assay deals with APN. To be noted: Table S1, cited from earlier work.
The test system of another assay is mAPM. Also on record: method as in earlier work. To be noted: Table S1; ref 3 (Neumann et al., FEMS Microbiol. Lett. 1997); cited from earlier work.
The subject of the next assay is ACE. To be noted: Table S1; ref 3 (Neumann et al., FEMS Microbiol. Lett. 1997); cited from earlier work.
The subject of the next assay is cAPM. Also on record: method as in earlier work. The conditions noted are these: Table S1; ref 3 (Neumann et al., FEMS Microbiol. Lett. 1997); cited from earlier work.
Setting [2] is: Activity: APM, Table S1, source 14 = this manuscript.
[3] abbreviates: IC50 in μM ± SD, Table 4, substrate L-leucine-p-nitroanilide, Tris-HCl pH 7.0, 37 °C.
[4] abbreviates: Table 4, substrate L-leucine-p-nitroanilide, Tris-HCl pH 7.0, 37 °C, read-out: IC50 in μM ± SD.
Where [5] appears, read: Table S1, source 14 = this manuscript, heading: Activity: APM, read-out: Activity: APM.
Setting [6] is: read-out: Activity: APM, Table S1, source 14 = this manuscript.
Setting [7] is: read-out: IC50 in μM ± SD, Table 4, substrate L-leucine-p-nitroanilide, Tris-HCl pH 7.0, 37 °C.

Read-outs that look alike come from different tables or passages of the source. Square brackets hold non-standard residues; d marks the D form. Peptide text beside a SMILES is read from it. * marks the point of attachment. X13 = CN[C@H](CCCCCCC(Cl)Cl)[C@@H](O)C(=O)*; X4 = CN[C@H](CCCCCCCCl)[C@@H](O)C(=O)*; X7 = N[C@H](CCCCCCCCl)[C@@H](O)C(=O)*; NMeY = CN[C@@H](Cc1ccc(O)cc1)C(=O)O; X17 = CCCCC[C@H](N)[C@H](O)C(=O)*; NMeI = CC[CH](C)[CH](NC)C(=O)O; NMeL = CN[CH](CC(C)C)C(=O)O; X11 = CCCCCCCC(NC)C(O)C(=O)*; X5 = NC(CCCCCCCCl)C(O)C(=O)*; X16 = CCCCCC(NC)C(O)C(=O)*; X8 = CCCCCCCC(N)C(O)C(=O)*

In the case of `CN[C@H](CCCCCCCCl)[C@@H](O)C(=O)N[C@@H](Cc1ccc(O)cc1)C(=O)N(C)[C@@H](CC(C)C)C(=O)N1CCC[C@H]1C(=O)N[C@@H](Cc1ccc(O)cc1)C(=O)OC` [Microginin KR815] (X4-Y[NMeL]PY-OMe), the IC50 in assay [1] (setting [2]) was 0.072 µM; in assay [1] (setting [3]), 72 ± 0.1 µM.

Take `CC(C)[C@@H](C(=O)N[C@@H](Cc1ccc(O)cc1)C(=O)O)N(C)C(=O)[C@H](C)NC(=O)[C@@H](O)[C@@H](N)CCCCCCCCl` [Microginin AL584]: the “Activity: APN (ni)” value in the assay on APN (ref 10 (Gesner-Apter, Carmeli, Tetrahedron 2008)) was “ni”.

For the compound Microginin FR1, the IC50 in the assay with mAPM is 6 nM; in the assay on ACE it was 16000 nM; in the assay on cAPM, 1300 nM.

For `CCCCCCCC(N)C(O)C(=O)NC(C(=O)N1CCCC1C(=O)NC(Cc1ccc(O)cc1)C(=O)NC(Cc1ccc(O)cc1)C(=O)O)C(C)O` (stereo not shown) [Microginin FR3] (X8-TPYY-OH; configuration not given here), the IC50 in assay [1] (setting [2]) worked out at 0.0062 µM; in assay [1] (setting [3]) it was 6.2 ± 0.03 µM.

On to `CCCCCCC[C@@H](NC)[C@@H](O)C(=O)N[C@@H](Cc1ccc(O)cc1)C(=O)N(C)[C@@H](CC(C)C)C(=O)N1CCC[C@H]1C(=O)O` [Microginin KR604], for which the results for the IC50 in assay [1] (setting [4]) and in assay [1] (setting [5]) were 7.5 ± 0.1 µM and 7.5 µM, respectively.

For `CCC(C)C(C(=O)N1CCCC1C(=O)NC(Cc1ccc(O)cc1)C(=O)O)N(C)C(=O)C(Cc1ccc(O)cc1)NC(=O)C(O)C(N)CCCCCCCCl` (stereo not shown) [Microginin HG787] (X5-Y[NMeI]PY-OH; configuration not given here), in the assay with APN (ref 11 (Lifshits et al., Tetrahedron 2011)), the IC50 was 7700 nM.

As for `CCCCC[C@H](N)[C@H](O)C(=O)N[C@H](C(=O)N(C)[C@H](C(=O)N(C)[C@@H](Cc1ccc(O)cc1)C(=O)N[C@@H](Cc1ccc(O)cc1)C(=O)O)[C@@H](C)CC)C(C)C` [Nostoginin BN741] (X17-V[NMeI][NMeY]Y-OH), the IC50 in the assay on APN (ref 8 (Ploutno, Carmeli, Tetrahedron 2002)) is 1300 nM.

On to `CCCCCC(NC)C(O)C(=O)N[C@H](C(=O)N(C)[C@H](C(=O)N(C)[C@@H](Cc1ccc(O)cc1)C(=O)N[C@@H](Cc1ccc(O)cc1)C(=O)O)[C@@H](C)CC)C(C)C` (stereo partly shown) [Microginin SD755] (X16-V[NMeI][NMeY]Y-OH), for which the IC50 in the assay on APN (ref 7 (Resef, Carmeli, Tetrahedron 2001)) is 18500 nM.

On to `CN[C@H](CCCCCCCCl)[C@@H](O)C(=O)N[C@@H](Cc1ccc(O)cc1)C(=O)N(C)[C@@H](CC(C)C)C(=O)N1CCC[C@H]1C(=O)N[C@@H](Cc1ccc(O)cc1)C(=O)O` [Microginin KR801] (X4-Y[NMeL]PY-OH), for which the values for the IC50 in assay [1] (setting [6]) and in assay [1] (setting [7]) were 0.0001 µM and 0.1 ± 0.2 µM, respectively.

Take `CCCCCCCC(NC)C(O)C(=O)NC(C(=O)N1CCCC1C(=O)NC(Cc1ccc(O)cc1)C(=O)NC(Cc1ccc(O)cc1)C(=O)O)C(C)O` (stereo not shown) [Microginin FR4] (X11-TPYY-OH; configuration not given here): the IC50 in assay [1] (setting [6]) stood at 0.0018 µM; in assay [1] (setting [7]), 1.8 ± 0.04 µM.

Consider `CN[C@H](CCCCCCCCl)[C@@H](O)C(=O)N[C@@H](Cc1ccc(O)cc1)C(=O)N(C)[C@@H](CC(C)C)C(=O)N1CCC[C@H]1C(=O)O` [Microginin KR638], for which the IC50 in assay [1] (setting [4]) is 3.8 ± 0.3 µM; in assay [1] (setting [5]) it was 3.8 µM.

For the compound `CCCCCCCC(NC)C(O)C(=O)NC(Cc1ccc(O)cc1)C(=O)N(C)C(CC(C)C)C(=O)N1CCCC1C(=O)NC(Cc1ccc(O)cc1)C(=O)O` (stereo not shown) [Microginin KR767] (X11-Y[NMeL]PY-OH; configuration not given here), the IC50 stood at 0.0005 µM in assay [1] (setting [6]) and 0.5 ± 0.2 µM in assay [1] (setting [7]).

Take `CC(C)C[C@@H](C(=O)N1CCC[C@H]1C(=O)N[C@@H](Cc1ccc(O)cc1)C(=O)O)N(C)C(=O)[C@H](Cc1ccc(O)cc1)NC(=O)[C@H](O)[C@H](N)CCCCCCCCl` [Microginin KR787] (X7-Y[NMeL]PY-OH): the figures for the IC50 in assay [1] (setting [6]) and in assay [1] (setting [7]) were 0.0057 µM and 5.7 ± 0.1 µM, respectively.

As for `CN[C@H](CCCCCCC(Cl)Cl)[C@@H](O)C(=O)N[C@@H](Cc1ccc(O)cc1)C(=O)N(C)[C@@H](CC(C)C)C(=O)N1CCC[C@H]1C(=O)N[C@@H](Cc1ccc(O)cc1)C(=O)O` [Microginin KR835] (X13-Y[NMeL]PY-OH), the IC50 is 0.0004 µM in assay [1] (setting [6]) and 0.4 ± 0.2 µM in assay [1] (setting [7]).
